ChEMBL document CHEMBL1201862, “PubChem BioAssay data set” (2004)
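Results reflect a 48-hour exposure of cells in 96-well plates to compound at five concentrations. At the GI50, growth is halved.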 Calls of active or inactive are those of the source. Cut-off read from the data, not from the text of the source: active = GI50 up to about 1.1 µM and inactive = higher.

Experiments:
Test in all cases: NCI tumour cell line growth inhibition, 48 h
[1] = system: SNB-78
[2] = system: HL-60
[3] = system: SNB-75
[4] = system: HT-29
[5] = system: OVCAR-8
[6] = system: KM12
[7] = system: HOP-18
[8] = system: SN12C
[9] = system: UO-31
[10] = system: OVCAR-3
[11] = system: HCT-15
[12] = system: Malme-3M
[13] = system: DLD-1
[14] = system: SK-MEL-28
[15] = system: SF-539
[16] = system: HCT-116
[17] = system: MOLT-4
[18] = system: RPMI-8226
[19] = system: ACHN
[20] = system: UACC-62
[21] = system: U-251
[22] = system: SW-620
[23] = system: 786-0
[24] = system: EKVX
[25] = system: RXF 393
[26] = system: HOP-92
[27] = system: HCC 2998
[28] = system: OVCAR-4
[29] = system: NCI-H460
[30] = system: SF-268
[31] = system: SK-MEL-5
[32] = system: SNB-19
[33] = system: SK-OV-3
[34] = system: DMS-114
[35] = system: COLO 205
[36] = system: CCRF-CEM
[37] = system: IGROV-1
[38] = system: M14
[39] = system: M19-MEL
[40] = system: SF-295
[41] = system: HOP-62
[42] = system: KM-20L2
[43] = system: DMS-273
[44] = system: UACC-257
[45] = system: CAKI-1
[46] = system: NCI-H522
[47] = system: SR
[48] = system: OVCAR-5
[49] = system: A498
[50] = system: A549
[51] = system: LOX IMVI
[52] = system: TK-10
[53] = system: LXFL 529
[54] = system: NCI-H226
[55] = system: NCI-H23
[56] = system: K562

C[N+]1(C)C/C(=C\c2ccncc2)C(=O)/C(=C/c2ccncc2)C1
GI50 [1]: > 100 µM (inactive)
GI50 [2]: 24.8 µM (inactive)
GI50 [3]: > 100 µM (inactive)
GI50 [4]: > 100 µM (inactive)
GI50 [5]: > 100 µM (inactive)
GI50 [6]: > 100 µM (inactive)
GI50 [7]: > 100 µM (inactive)
GI50 [8]: > 100 µM (inactive)
GI50 [9]: > 100 µM (inactive)
GI50 [10]: > 100 µM (inactive)
GI50 [11]: > 100 µM
GI50 [12]: > 100 µM (inactive)
GI50 [13]: > 100 µM (inactive)
GI50 [14]: > 100 µM (inactive)
GI50 [15]: > 100 µM (inactive)
GI50 [16]: 38.5 µM (inactive)
GI50 [17]: > 100 µM (inactive)
GI50 [18]: 63.8 µM (inactive)
GI50 [19]: > 100 µM (inactive)
GI50 [20]: > 100 µM (inactive)
GI50 [21]: 85.5 µM (inactive)
GI50 [22]: 52.7 µM (inactive)
GI50 [23]: > 100 µM (inactive)
GI50 [24]: > 100 µM (inactive)
GI50 [25]: > 100 µM (inactive)
GI50 [26]: > 100 µM (inactive)
GI50 [27]: > 100 µM (inactive)
GI50 [28]: > 100 µM (inactive)
GI50 [29]: > 100 µM (inactive)
GI50 [30]: 25.2 µM (inactive)
GI50 [31]: > 100 µM (inactive)
GI50 [32]: > 100 µM (inactive)
GI50 [33]: > 100 µM (inactive)
GI50 [34]: > 100 µM (inactive)
GI50 [35]: > 100 µM (inactive)
GI50 [36]: 37.1 µM (inactive)
GI50 [37]: > 100 µM (inactive)
GI50 [38]: > 100 µM (inactive)
GI50 [39]: > 100 µM (inactive)
GI50 [40]: > 100 µM (inactive)
GI50 [41]: > 100 µM (inactive)
GI50 [42]: > 100 µM (inactive)
GI50 [43]: > 100 µM (inactive)
GI50 [44]: > 100 µM (inactive)
GI50 [45]: > 100 µM (inactive)
GI50 [46]: 19.6 µM (inactive)
GI50 [47]: > 100 µM (inactive)
GI50 [48]: > 100 µM (inactive)
GI50 [49]: > 100 µM (inactive)
GI50 [50]: > 100 µM (inactive)
GI50 [51]: > 100 µM (inactive)
GI50 [52]: > 100 µM (inactive)
GI50 [53]: > 100 µM (inactive)

COC(=O)/C(C#N)=C1\NN=NN1CCCN1CCOCC1
GI50 [1]: > 100 µM (inactive)
GI50 [3]: > 100 µM (inactive)
GI50 [4]: > 100 µM (inactive)
GI50 [5]: > 100 µM (inactive)
GI50 [6]: > 100 µM (inactive)
GI50 [7]: > 100 µM (inactive)
GI50 [8]: > 100 µM (inactive)
GI50 [9]: > 100 µM (inactive)
GI50 [54]: > 100 µM (inactive)
GI50 [10]: > 100 µM (inactive)
GI50 [11]: > 100 µM
GI50 [12]: > 100 µM (inactive)
GI50 [13]: > 100 µM (inactive)
GI50 [14]: > 100 µM (inactive)
GI50 [15]: > 100 µM (inactive)
GI50 [16]: > 100 µM (inactive)
GI50 [17]: > 100 µM (inactive)
GI50 [18]: > 100 µM (inactive)
GI50 [19]: > 100 µM (inactive)
GI50 [20]: > 100 µM (inactive)
GI50 [21]: > 100 µM (inactive)
GI50 [22]: > 100 µM (inactive)
GI50 [23]: > 100 µM (inactive)
GI50 [24]: > 100 µM (inactive)
GI50 [25]: > 100 µM (inactive)
GI50 [26]: > 100 µM (inactive)
GI50 [27]: > 100 µM (inactive)
GI50 [29]: > 100 µM (inactive)
GI50 [55]: > 100 µM (inactive)
GI50 [31]: > 100 µM (inactive)
GI50 [32]: > 100 µM (inactive)
GI50 [33]: > 100 µM (inactive)
GI50 [34]: > 100 µM (inactive)
GI50 [35]: > 100 µM (inactive)
GI50 [36]: > 100 µM (inactive)
GI50 [37]: > 100 µM (inactive)
GI50 [38]: > 100 µM (inactive)
GI50 [39]: > 100 µM (inactive)
GI50 [40]: > 100 µM (inactive)
GI50 [56]: > 100 µM (inactive)
GI50 [43]: > 100 µM (inactive)
GI50 [44]: > 100 µM (inactive)
GI50 [45]: > 100 µM (inactive)
GI50 [46]: > 100 µM (inactive)
GI50 [49]: > 100 µM (inactive)
GI50 [50]: > 100 µM (inactive)
GI50 [51]: > 100 µM (inactive)
GI50 [52]: > 100 µM (inactive)
GI50 [53]: > 100 µM (inactive)
